Results reported in patent US11339130B1 (Blade Therapeutics, Inc., priority 2016, dated 2022).
Like-named read-outs stand apart in the source and are kept apart here.

Experiments:
Human Calpain 1/NS1 = target: T1, Human Calpain 1/NS1 (Homo sapiens, UniProt P07384); assay: Calpain inhibition continuous fluorescence (FRET) assay, Human Calpain 1/NS1; format: biochemical; conditions: read-out: Human Calpain 1/NS1 IC50
T1 sequence (P07384 1-714): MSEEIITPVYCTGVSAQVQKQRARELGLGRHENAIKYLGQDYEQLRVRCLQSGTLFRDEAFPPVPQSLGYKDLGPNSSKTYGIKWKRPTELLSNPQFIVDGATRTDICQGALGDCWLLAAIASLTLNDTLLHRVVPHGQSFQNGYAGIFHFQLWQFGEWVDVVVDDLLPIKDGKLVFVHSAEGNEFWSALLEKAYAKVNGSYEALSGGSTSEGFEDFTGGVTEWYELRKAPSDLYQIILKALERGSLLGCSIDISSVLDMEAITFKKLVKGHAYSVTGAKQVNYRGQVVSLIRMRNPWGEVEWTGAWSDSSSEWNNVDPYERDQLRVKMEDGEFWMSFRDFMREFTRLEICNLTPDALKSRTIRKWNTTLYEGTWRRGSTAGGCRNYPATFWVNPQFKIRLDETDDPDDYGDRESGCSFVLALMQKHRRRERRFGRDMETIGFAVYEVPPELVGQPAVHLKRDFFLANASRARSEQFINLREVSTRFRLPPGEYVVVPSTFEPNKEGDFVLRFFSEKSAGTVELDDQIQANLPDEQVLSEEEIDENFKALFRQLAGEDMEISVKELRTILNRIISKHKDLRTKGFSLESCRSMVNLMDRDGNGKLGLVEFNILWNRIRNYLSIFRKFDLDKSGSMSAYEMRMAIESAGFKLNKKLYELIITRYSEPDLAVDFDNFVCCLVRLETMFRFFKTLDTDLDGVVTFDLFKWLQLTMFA
T1 sequence (P04632 1-268 partner): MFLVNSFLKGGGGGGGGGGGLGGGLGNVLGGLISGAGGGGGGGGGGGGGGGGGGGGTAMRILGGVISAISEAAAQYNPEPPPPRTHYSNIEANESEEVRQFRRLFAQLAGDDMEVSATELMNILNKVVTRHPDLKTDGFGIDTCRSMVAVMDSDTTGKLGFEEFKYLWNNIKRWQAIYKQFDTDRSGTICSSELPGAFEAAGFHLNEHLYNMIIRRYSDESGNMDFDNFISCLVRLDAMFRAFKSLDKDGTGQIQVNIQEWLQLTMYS
How it was run: (§1)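 Fluorescence increase from the cleaved 5-FAM/QXL 520 substrate, read at 490/520 nm, gave activity. Calcium was supplied with the substrate to activate the enzyme in situ after a 25C enzyme-inhibitor preincubation, and IC50s were fit from initial slopes.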

Human Calpain 2/NS1 = target: T2, Human Calpain 2/NS1 (Homo sapiens, UniProt P17655); assay: Calpain inhibition continuous fluorescence (FRET) assay, Human Calpain 2/NS1; format: biochemical; conditions: read-out: Human Calpain 2/NS1 IC50
T2 sequence (P17655 1-700): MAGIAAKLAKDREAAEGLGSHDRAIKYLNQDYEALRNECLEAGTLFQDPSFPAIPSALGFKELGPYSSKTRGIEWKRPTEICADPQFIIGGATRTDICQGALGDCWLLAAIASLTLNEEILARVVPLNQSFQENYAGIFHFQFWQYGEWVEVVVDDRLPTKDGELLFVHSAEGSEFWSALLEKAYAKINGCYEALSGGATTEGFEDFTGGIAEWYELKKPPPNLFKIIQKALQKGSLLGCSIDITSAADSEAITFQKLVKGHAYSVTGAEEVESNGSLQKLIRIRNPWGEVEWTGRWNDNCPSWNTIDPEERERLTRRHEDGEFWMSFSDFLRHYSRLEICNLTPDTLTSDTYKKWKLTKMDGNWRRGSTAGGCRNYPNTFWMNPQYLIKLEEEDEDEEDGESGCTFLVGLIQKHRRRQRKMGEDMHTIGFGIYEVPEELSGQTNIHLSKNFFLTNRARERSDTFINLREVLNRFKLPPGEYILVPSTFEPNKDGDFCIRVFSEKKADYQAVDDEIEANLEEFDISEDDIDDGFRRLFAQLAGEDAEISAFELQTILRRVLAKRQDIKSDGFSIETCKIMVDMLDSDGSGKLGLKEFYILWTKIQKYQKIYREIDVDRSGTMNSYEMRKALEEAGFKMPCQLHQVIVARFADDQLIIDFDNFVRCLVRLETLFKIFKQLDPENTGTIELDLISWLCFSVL
T2 sequence (P04632 1-268 partner): T1 sequence (P04632 1-268 partner)
How it was run: as §1

[1] = test system: Calpain activity in SH-SY5Y cells (SBDP-150); assay: SH-SY5Y Spectrin western blot assay (SBDP-150 breakdown product, A23187-induced); format: cell-based; conditions: Homo sapiens, read-out: SH-SY5Y Spectrin IC50
Human Calpain 9/NS1 = target: T3, Human Calpain 9/NS1 (Homo sapiens, UniProt O14815); assay: Calpain inhibition continuous fluorescence (FRET) assay, Human Calpain 9/NS1; format: biochemical; conditions: read-out: Human Calpain 9/NS1 IC50
T3 sequence (O14815 1-690): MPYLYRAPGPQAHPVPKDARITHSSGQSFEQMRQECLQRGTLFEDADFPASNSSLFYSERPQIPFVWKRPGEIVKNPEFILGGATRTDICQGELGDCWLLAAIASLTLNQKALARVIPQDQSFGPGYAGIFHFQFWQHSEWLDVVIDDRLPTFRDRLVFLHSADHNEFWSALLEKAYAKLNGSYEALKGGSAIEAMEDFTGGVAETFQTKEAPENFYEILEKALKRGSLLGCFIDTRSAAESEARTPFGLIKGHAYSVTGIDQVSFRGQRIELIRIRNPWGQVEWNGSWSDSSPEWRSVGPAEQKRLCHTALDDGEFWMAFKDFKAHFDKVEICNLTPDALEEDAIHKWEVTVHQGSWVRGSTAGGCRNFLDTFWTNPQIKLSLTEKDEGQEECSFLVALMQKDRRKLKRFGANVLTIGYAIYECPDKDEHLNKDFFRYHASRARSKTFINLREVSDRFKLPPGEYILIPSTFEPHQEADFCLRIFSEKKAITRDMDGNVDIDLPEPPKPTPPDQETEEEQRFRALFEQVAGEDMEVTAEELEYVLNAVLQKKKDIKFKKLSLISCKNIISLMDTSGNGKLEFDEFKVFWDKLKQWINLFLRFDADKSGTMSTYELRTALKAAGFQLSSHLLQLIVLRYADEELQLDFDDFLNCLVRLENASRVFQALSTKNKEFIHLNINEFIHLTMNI
T3 sequence (P04632 1-268 partner): T1 sequence (P04632 1-268 partner)
How it was run: as §1

[2] = test system: Calpain activity in SH-SY5Y cells; assay: SH-SY5Y + AMC fluorescence assay (Suc-LLVY-AMC substrate); format: cell-based; conditions: read-out: SH-SY5Y + AMC IC50
[3] = Column D, SH-SY5Y cells, A23187-induced SBDP-150
[4] = SH-SY5Y cells, A23187-induced SBDP-150, western blot

Cc1cc(C(=O)N[C@@H](Cc2ccccc2)C(=O)C(N)=O)n(-c2cccc(CNC(=O)Cc3ccccc3)c2)n1 [Compound 144, (S)—N-(4-amino-3,4-dioxo-1-phenylbutan-2-yl)-3-methyl-1-(3-((2-phenylacetamido)methyl)phenyl)-1H-pyrazole-5-carboxamide]
IC50 (Human Calpain 1/NS1; Column A): < 3 µM
IC50 (Human Calpain 2/NS1; Column B): < 3 µM
IC50 [1, 3]: < 10 µM
IC50 (Human Calpain 9/NS1; Column C): < 3 µM
IC50 ([2]; Column E): < 10 µM

NC(=O)C(=O)C(Cc1ccccc1)NC(=O)c1nsnc1-c1cccc(F)c1 (stereo not shown) [Compound 321, N-(4-amino-3,4-dioxo-1-phenylbutan-2-yl)-4-(3-fluorophenyl)-1,2,5-thiadiazole-3-carboxamide]
IC50 (Human Calpain 1/NS1): < 3 µM
IC50 (Human Calpain 2/NS1): < 3 µM
IC50 [1, 4]: < 10 µM
IC50 (Human Calpain 9/NS1): < 3 µM
IC50 [2]: > 25 µM

Cc1cc(C(=O)N[C@@H](Cc2ccccc2)C(=O)C(N)=O)n(-c2cccc(-c3ccc(F)cc3)c2)n1 [Compound 103, (S)—N-(4-amino-3,4-dioxo-1-phenylbutan-2-yl)-1-(4′-fluoro-[1,1′-biphenyl]-3-yl)-3-methyl-1H-pyrazole-5-carboxamide]
IC50 (Human Calpain 1/NS1; Column A): < 3 µM
IC50 (Human Calpain 2/NS1; Column B): < 3 µM
IC50 [1, 3]: > 25 µM
IC50 (Human Calpain 9/NS1; Column C): < 3 µM
IC50 ([2]; Column E): > 25 µM

Cc1nc(-c2ccccn2)c(C(=O)N[C@@H](Cc2ccccc2)C(=O)C(N)=O)o1 [Compound 266, (S)—N-(4-amino-3,4-dioxo-1-phenylbutan-2-yl)-2-methyl-4-(pyridin-2-yl)oxazole-5-carboxamide]
IC50 (Human Calpain 1/NS1; Column A): < 3 µM
IC50 (Human Calpain 2/NS1; Column B): < 3 µM
IC50 [1, 3]: > 25 µM
IC50 (Human Calpain 9/NS1; Column C): < 3 µM
IC50 ([2]; Column E): > 25 µM

Cn1cc(C(=O)NC(Cc2ccccc2)C(=O)C(N)=O)c(N2CCN(C(=O)OC(C)(C)C)CC2)n1 (stereo not shown) [Compound 603, Tert-Butyl 4-(4-((4-amino-3,4-dioxo-1-phenylbutan-2-yl)carbamoyl)-1-methyl-1H-pyrazol-3-yl)piperazine-1-carboxylate]
IC50 (Human Calpain 1/NS1): 3 to 10 µM
IC50 (Human Calpain 2/NS1): 3 to 10 µM
IC50 ([1]; SH-SY5Y): > 25 µM
IC50 (Human Calpain 9/NS1): 3 to 10 µM
IC50 [2]: > 25 µM

CC(NC(=O)c1nsnc1-c1ccccc1)C(=O)C(N)=O (stereo not shown) [Compound 468, N-(4-amino-3,4-dioxobutan-2-yl)-4-phenyl-1,2,5-thiadiazole-3-carboxamide]
IC50 (Human Calpain 1/NS1): < 3 µM
IC50 (Human Calpain 2/NS1): < 3 µM
IC50 [1, 4]: < 10 µM
IC50 (Human Calpain 9/NS1): < 3 µM
IC50 [2]: > 25 µM

Cn1cc(C(=O)NC(Cc2ccccc2)C(=O)C(N)=O)c(-c2cccc3c2OC(F)(F)O3)n1 (stereo not shown) [Compound 510, N-(4-amino-3,4-dioxo-1-phenylbutan-2-yl)-3-(2,2-difluorobenzo[d][1,3]dioxol-4-yl)-1-methyl-1H-pyrazole-4-carboxamide]
IC50 (Human Calpain 1/NS1): < 3 µM
IC50 (Human Calpain 2/NS1): < 3 µM
IC50 [1, 4]: 10 to 25 µM
IC50 (Human Calpain 9/NS1): < 3 µM
IC50 [2]: 10 to 25 µM

NC(=O)C(=O)C(Cc1ccccc1)NC(=O)c1cn(C(F)F)nc1-c1cncc2ccccc12 (stereo not shown) [Compound 561, N-(4-amino-3,4-dioxo-1-phenylbutan-2-yl)-1-(difluoromethyl)-3-(isoquinolin-4-yl)-1H-pyrazole-4-carboxamide]
IC50 (Human Calpain 1/NS1): < 3 µM
IC50 (Human Calpain 2/NS1): < 3 µM
IC50 [1, 4]: 10 to 25 µM
IC50 (Human Calpain 9/NS1): < 3 µM
IC50 [2]: 10 to 25 µM

NC(=O)C(=O)C(Cc1ccccc1)NC(=O)c1nsnc1-c1cccc(COCc2ccccc2)c1 (stereo not shown) [Compound 370, N-(4-amino-3,4-dioxo-1-phenylbutan-2-yl)-4-(3-((benzyloxy)methyl)phenyl)-1,2,5-thiadiazole-3-carboxamide]
IC50 (Human Calpain 1/NS1): < 3 µM
IC50 (Human Calpain 2/NS1): < 3 µM
IC50 [1, 4]: 10 to 25 µM
IC50 (Human Calpain 9/NS1): < 3 µM
IC50 [2]: > 25 µM

COc1nccc(-n2nc(C)cc2C(=O)NC(Cc2ccccc2)C(=O)C(N)=O)n1 (stereo not shown) [Compound 436, N-(4-amino-3,4-dioxo-1-phenylbutan-2-yl)-1-(2-methoxypyrimidin-4-yl)-3-methyl-1H-pyrazole-5-carboxamide]
IC50 (Human Calpain 1/NS1): < 3 µM
IC50 (Human Calpain 2/NS1): < 3 µM
IC50 [1, 4]: > 25 µM
IC50 (Human Calpain 9/NS1): < 3 µM
IC50 [2]: < 10 µM

Cn1cc(C(=O)NC(Cc2ccccc2)C(=O)C(N)=O)c(-c2cccc3ccccc23)n1 (stereo not shown) [Compound 569, N-(4-amino-3,4-dioxo-1-phenylbutan-2-yl)-1-methyl-3-(naphthalen-1-yl)-1H-pyrazole-4-carboxamide]
IC50 (Human Calpain 1/NS1): < 3 µM
IC50 (Human Calpain 2/NS1): < 3 µM
IC50 [1, 4]: > 25 µM
IC50 (Human Calpain 9/NS1): < 3 µM
IC50 [2]: 10 to 25 µM

Cc1cc(C(=O)NC(Cc2ccccc2)C(=O)C(N)=O)n(-c2ccnc(C#N)n2)n1 (stereo not shown) [Compound 437, N-(4-amino-3,4-dioxo-1-phenylbutan-2-yl)-1-(2-cyanopyrimidin-4-yl)-3-methyl-1H-pyrazole-5-carboxamide]
IC50 (Human Calpain 1/NS1): < 3 µM
IC50 (Human Calpain 2/NS1): < 3 µM
IC50 [1, 4]: > 25 µM
IC50 (Human Calpain 9/NS1): < 3 µM
IC50 [2]: 10 to 25 µM

CC(C)n1cc(C(=O)NC(Cc2ccccc2)C(=O)C(N)=O)c(-c2cccc(F)c2)n1 (stereo not shown) [Compound 473, N-(4-amino-3,4-dioxo-1-phenylbutan-2-yl)-3-(3-fluorophenyl)-1-isopropyl-1H-pyrazole-4-carboxamide]
IC50 (Human Calpain 1/NS1): < 3 µM
IC50 (Human Calpain 2/NS1): < 3 µM
IC50 [1, 4]: 10 to 25 µM
IC50 (Human Calpain 9/NS1): < 3 µM
IC50 [2]: 10 to 25 µM

CCCCC(NC(=O)c1nsnc1-c1ccccc1)C(=O)C(N)=O (stereo not shown) [Compound 467, N-(1-amino-1,2-dioxoheptan-3-yl)-4-phenyl-1,2,5-thiadiazole-3-carboxamide]
IC50 (Human Calpain 1/NS1): < 3 µM
IC50 (Human Calpain 2/NS1): < 3 µM
IC50 [1, 4]: < 10 µM
IC50 (Human Calpain 9/NS1): < 3 µM
IC50 [2]: > 25 µM
